The source of these data is patent publication US20240254129A1, “HETEROCYCLIC COMPOUNDS AND USES THEREOF” (Kumquat Biosciences Inc., priority 2021, published 2024).

The structures appear in SMILES notation. Read-outs that look alike come from different tables or passages of the source.

The target of assay [1] is GST-tagged K-Ras mutant / His-tagged hSOS1 (Homo sapiens, UniProt P01116). The experiment in a line: HTRF assay, K-Ras mutant / SOS1 interaction. In kind it is binding. The note with it: read-out: IC50 against mutant Kras. In a few lines: (§1)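 Tagged proteins: GST-K-Ras (wt or mutant), His-hSOS1; labels anti-GST-Eu/anti-6His-XL665; HEPES pH 7.4 buffer with DTT, BSA, Igepal. Read ≥10 min post-mix at ex 337 nm; IC50 from ratiometric data, duplicates.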

The target in the next assay is T1, wildtype Kras / hSOS1 (Homo sapiens, UniProt P01116).
T1 construct: made in house; host or cells: E. coli BL21 (DE3)
The experiment in a line: HTRF assay, wildtype Kras / SOS1 interaction. The note with it: read-out: IC50 against wildtype Kras. The class given is binding. In a few lines: as §1
For orientation: In TR-FRET formats the signal depends on donor and acceptor labels being close together.

Where [2] appears, read: compound nos. 102-196, general methodology of example 5.

T1 sequence (P01116 1-188 isoform P01116-2): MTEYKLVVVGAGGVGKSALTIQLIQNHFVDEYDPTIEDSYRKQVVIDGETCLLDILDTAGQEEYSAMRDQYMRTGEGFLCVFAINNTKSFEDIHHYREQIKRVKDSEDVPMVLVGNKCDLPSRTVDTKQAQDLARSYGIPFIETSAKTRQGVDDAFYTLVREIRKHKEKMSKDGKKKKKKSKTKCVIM
Sequence of GST-tagged K-Ras mutant / His-tagged hSOS1 (P01116 whole entry G12D, form open): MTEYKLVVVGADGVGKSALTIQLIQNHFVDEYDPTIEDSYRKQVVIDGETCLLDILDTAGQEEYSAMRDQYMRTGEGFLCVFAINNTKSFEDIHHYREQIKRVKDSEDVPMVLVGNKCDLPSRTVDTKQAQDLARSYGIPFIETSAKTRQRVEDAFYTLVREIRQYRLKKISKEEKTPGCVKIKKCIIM

Take `CN1CCC[C@H]1COc1nc(N2CCOCC(F)(F)C2)c2cc(Cl)c(-c3ccc(F)c4sc(N)nc34)c(F)c2n1` [Compound 106, 4-(6-chloro-4-(6,6-difluoro-1,4-oxazepan-4-yl)-8-fluoro-2-(((S)-1-methylpyrrolidin-2-yl)methoxy)quinazolin-7-yl)-7-fluorobenzo[d]thiazol-2-amine]: the IC50 (in assay [1] (setting [2]); at wildtype Kras / hSOS1 (setting [2])) was below 500 nM each time.
Take `Cc1cc(N)nc(-c2ccc3c(N4CC5CCC(C4)N5)nc(OC[C@@]45CCCN4C[C@H](F)C5)nc3c2F)c1C1CC1` [Compound 648, 6-(4-(3,8-diazabicyclo-[3.2.1]octan-3-yl)-8-fluoro-2-(((2R,7aS)-2-fluorotetra-hydro-1H-pyrrolizin-7a(5H)-yl)methoxy)quinazolin-7-yl)-5-cyclopropyl-4-methyl-pyridin-2-amine]: the IC50 (in assay [1] (compound nos. 401-703); on wildtype Kras / hSOS1 (compound nos. 401-703)) was above 500 nM in each case.
In the case of `Cc1ccc(C#N)cc1-c1c(Cl)cc2c(N3CC4CCC(C3)N4)nc(OCC34CCCN3CCC4)nc2c1F` [Compound 510, 3-(4-(3,8-diazabicyclo-[3.2.1]octan-3-yl)-6-chloro-8-fluoro-2-((tetrahydro-1H-pyrrolizin-7a(5H)-yl)meth-oxy)quinazolin-7-yl)-4-methylbenzonitrile], the IC50 (in assay [1] (compound nos. 401-703); on wildtype Kras / hSOS1 (compound nos. 401-703)) was above 500 nM throughout.
`Cc1ncc(COc2nc(N3CCCCCC3)c3cc(Cl)c(-c4cccc5sc(N)nc45)c(F)c3n2)cn1` [Compound 505, 4-(4-(azepan-1-yl)-6-chloro-8-fluoro-2-((2-methylpyr-imidin-5-yl)methoxy)quin-azolin-7-yl)benzo[d]thiazol-2-amine]: the IC50 (in assay [1] (compound nos. 401-703); on wildtype Kras / hSOS1 (compound nos. 401-703)) was above 500 nM in each case.
Take `Nc1nc2c(-c3c(Cl)cc4c(N5CC6CCC(C5)O6)nc(OC[C@@]56CCCN5C[C@H](F)C6)nc4c3F)ccc(F)c2s1` [Compound 454, 4-(4-(8-oxa-3-azabicyclo-[3.2.1]octan-3-yl)-6-chloro-8-fluoro-2-(((2R,7aS)-2-fluorotetrahydro-1H-pyrrolizin-7a(5H)-yl)meth-oxy)quinazolin-7-yl)-7-fluorobenzo[d]thiazol-2-amine]: the IC50 (in assay [1] (compound nos. 401-703); on wildtype Kras / hSOS1 (compound nos. 401-703)) was below 500 nM in each case.
With `Cc1ccc2sc(N)nc2c1-c1c(Cl)cc2c(N3CCNCC(F)(F)C3)nc(OCC34CCCN3CCC4)nc2c1O` [Compound 426, 7-(2-amino-5-methylbenzo-[d]thiazol-4-yl)-6-chloro-4-(6,6-difluoro-1,4-diazepan-1-yl)-2-((tetrahydro-1H-pyrrolizin-7a(5H)-yl)meth-oxy)quinazolin-8-ol], the IC50 (as a rule, the concentration at which inhibition is half-maximal) in assay [1] (compound nos. 401-703) was above 500 nM; at wildtype Kras / hSOS1 (compound nos. 401-703), below 500 nM.
Regarding `Nc1nc2c(-c3c(Cl)cc4c(N5CC6CCC(C5)N6)nc(OCC5(CN6CCCC6)CC5)nc4c3F)ccc(F)c2s1` [Compound 553, 4-(4-(3,8-diazabicyclo-[3.2.1]-octan-3-yl)-6-chloro-8-fluoro-2-((1-(pyrrolidin-1-ylmethyl)cyclopropyl)meth-oxy)quinazolin-7-yl)-7-fluorobenzo[d]thiazol-2-amine], the IC50 is below 500 nM in assay [1] (compound nos. 401-703) and above 500 nM at wildtype Kras / hSOS1 (compound nos. 401-703).
For `CC(C)CN1[C@@H]2CC[C@H]1CN(c1nc(OCC34CCCN3CCC4)nc3c(F)c(-c4ccc(F)c5sc(N)nc45)c(Cl)cc13)C2` [Compound 617, 4-(6-chloro-8-fluoro-4-((1R,5S)-8-isobutyl-3,8-diazabicyclo[3.2.1]octan-3-yl)-2-((tetrahydro-1H-pyrrolizin-7a(5H)-yl)meth-oxy)quinazolin-7-yl)-7-fluorobenzo[d]thiazol-2-amine], in that order: below 500 nM and above 500 nM.
